Results as given in patent US20220362330A1, “Compositions and Methods for Increasing Epithelial Barrier Function” (The Board of Trustees of the Leland Stanford Junior …, priority 2019, published 2022).

Tests used:
[1] = tested on: claudin-1, occludin, and tight junction protein 1; test: Gene expression of other cell-cell adhesion molecules in vaginal tissue; assay type: in vivo, mice
[2] = tested on: upstream regulators EFNA3 and ROCK2; test: Genome-wide gene expression and pathway analysis of vaginal tissue; assay type: in vivo; conditions: DMPA-treated vs estrus-stage mice
Experimental: The above results established changes that occur in genital mucosa of women initiating DMPA are recapitulated in DMPA-treated mice, and these that changes include lower expression of the cell-cell adhesion molecule DSG1 and increased genital mucosal permeability. To investigate mechanisms for DMPA-mediated downregulation of DSG1, genome-wide gene expression studies were performed with vaginal tissue from estrus-stage mice (i.e., mice resistant to genital HSV infection) and DMPA-treated mice (i.e., mice highly susceptible to this virus). […] EFNA molecules are involved in pathways that induce DSG1 expression and regulate epithelial cell responses and formation of intercellular adhesion complexes, and Eph receptors stimulate ROCK2-mediated actinomyosin contractility that increases keratinocyte differentiation via DSG1 upregulation. These gene expression analyses thus identified a potential mechanism by which progestins alter E-regulated expression of EFNA3 and ROCK2 and levels of DSG1. As EFNA3, DSG1, and ROCK2 are basally expressed in human genital epithelium, capacity of this E-regulated pathway to promote genital mucosal integrity in mice may also extend to results seen in the human female genital tract.

DSG1 protein = DSG1 protein levels in vaginal tissue, immunofluorescent staining and confocal microscopy; assay type: in vivo, mice; conditions: progestin-treated mice vs mice in estrus
Experimental: Excised mouse vaginas were formaldehyde fixed and paraffin embedded (FFPE), and 10 μm sections mounted on glass slides and de-paraffinized by sequential immersion in 100% xylene, 100% ethanol, 96% ethanol, and sterile DEPC-treated water. Antigen retrieval was performed using 10 mM sodium citrate buffer (pH 6.0) containing 0.05% Tween 20 (both Sigma-Aldrich) (20 minutes at 95° C.). After 3 PBS washes, sections were incubated overnight in 10% normal goat serum (Abcam, Cambridge Mass.) at 4° C., then incubated for 1 h at ambient temperate with rabbit anti-desmoglein-1 (clone EPR6766(B)) antibody, washed and incubated for 1 h with AlexaFluor® 488-labeled goat anti-rabbit IgG (antibodies from Abcam) (all antibodies were diluted in PBS with 1% BSA and 0.05% Tween 20). Sections were stained with DAPI and evaluated for levels of DSG1 protein (defined by calculating pixel numbers per 100 μm^2) using confocal microscopy and ImageJ software.

genital mucosa = test: Entry of activated hPBMCs into vaginal tissue of humanized mice; assay type: in vivo, hPBMC-engrafted NSG mice; conditions: CFSE-labeled activated hPBMCs ivag, 15 h; DMPA vs DMPA and E cream
Experimental: Because mice treated with DMPA and E were HSV-2 resistant and DMPA facilitated entry of leukocytes into vaginal tissue, it was posited that exogenous E blocks HIV-1 acquisition in a humanized mouse model of cell-associated HIV transmission. Human PBMC (hPBMCs)-engrafted NSG mice treated with DMPA or DMPA and E cream were ivag inoculated with CFSE-labeled activated hPBMCs. 15 h later, entry of these cells into vaginal tissue was examined by confocal microscopy. […] Humanized NSG mice treated as described above were also ivag infected with cell-associated HIV-1 (10^6 hPBMCs infected with HIV-1 Ba-L). 10 days later, serum was collected to quantify HIV-1 load via qRT-PCR.
To evaluate mucosal permeability to activated leukocytes, 10^6 human peripheral blood mononuclear cells (hPBMC)/ml were plated in RPMI-1640 supplemented with 10% FBS, 2 mM L-glutamine, 1 mM sodium pyruvate, non-essential amino acids, 50 μM 2-mercaptoethanol, 100 U/ml penicillin, 100 μg/ml streptomycin and 50 μg/ml gentamycin (Mediatech, Manassas, Va.) (henceforth termed complete medium). Plated cells were stimulated for 48 hours with 5 μg/ml of phytohemagglutinin (PHA) (Sigma-Aldrich, St. Louis Mo.), centrifuged, re-suspended (2×10^6 cells/ml) in complete media supplemented with 10 IU/ml recombinant human IL-2 (rhIL-2) (PeproTech, Rocky Hill, N.J.), and incubated another 5 days. […]

## CC(=O)O[C@]1(C(C)=O)CC[C@H]2[C@@H]3C[C@H](C)C4=CC(=O)CC[C@]4(C)[C@H]3CC[C@@]21C [DMPA]
[1]
  gene expression of claudin-1, occludin, and tight junction protein 1: did not alter
[2]
  effect on signaling pathways (pathway analysis): inhibition of signaling pathways that involve ephrin-A3 (EFNA3) and ROCK2
[2]; upstream regulator EFNA3
  Expr Log Ratio: −2.593
DSG1 protein
  DSG1a protein expression in vaginal tissue: significantly reduced
Genital mucosa
  penetration of activated hPBMCs into genital mucosa: more readily penetrated the genital mucosa
